Experimental data reported in patent publication US20050113317A1, “Combination of dehydroepiandrosterone or dehydroepiandrosterone-sulfate with a cromone for treatment of asthma or chronic obstructive pulmonary disease” (priority 2003, published 2005).
Where “and” joins values, the source holds several entries; their conditions need not be identical. Equal entries are not always repeated.

What was measured:
[1] = test system: Intracellular adenosine in various Rat Tissues; experiment: In vivo effect on adenosine levels in rat tissues
Experimental: Folinic acid (50 mg/kg) was administered intraperitoneally once daily for fourteen days. […] Hearts were removed from animals and flash frozen in liquid nitrogen with 10 s of death. Liver and lungs were removed en bloc and flash frozen with 30 s of death. Brain tissue was subsequently dissected.

HT-29 SF cells [2] = experiment: DHEA effect on cell cycle (flow cytometry); format: cell-based, human
[3] = Solubility remarks in text; format: physicochemical; conditions: 10^-4 M; mast cell assay conditions
[4] = test system: rat peritoneal mast cells; experiment: Mast cell degranulation (histamine secretion) after compound 48/80; format: cell-based
Experimental: We determined whether DHEA-sulfate would reduce mast cell degranulation after stimulation with compound 48/80 in rat peritoneal mast cells. Mast cell degranulation was quantified by measurement of histamine, a substance contained within the secretory granules of mast cells. The release of histamine is believed to parallel the release of leukotrienes and contribute to the respiratory dysfunction.
Freshly isolated rat peritoneal mast cells (2×10^5 cells) were pre-incubated for 5 min at 37° C. in a Balanced Salt Solution containing 150 mM NaCl (pH 7.4), 2.7 mM KCl, 0.9 mM CaCl2, 4 mM Na2HPO4, 2.7 mM KH2PO4, 1.75 mg/ml BSA and 0.1 μg/ml compound 48/80.
Following incubation, the mixture is cooled to 4° C. then centrifuged at 4500 rpm for 5 min. The supernatant is collected and mixed for 30 min at 4° C. with 5% TCA (trichloroacetic acid) to cause protein precipitation. After centrifugation at 9500×g for 15 min, the supernatant is collected and mixed with 0.25 M HCl. Thereafter, the samples are mixed with 2M NaOH and 0.2% OPT (ortho-phtalaldehyde) and incubated for 30 min at 4° C. in darkness, after which time the reaction is stopped by addition of 0.5 M H2SO4.
The amount of secreted histamine is quantified by measuring the fluorescence intensity at λex=360 nm and λem=450 nm using a spectrofluorimeter (GeminiXS, Molecular Devices). The results are expressed as a percent inhibition of control histamine secretion.

[5] = HPLC analysis of drug degradation during jet milling; format: physicochemical; conditions: HPLC peak area vs unmilled standard; single- and double-pass
Experimental: Two vials (A; single-pass; 150 mg) and (B double-pass; 600 mg) of the micronized drug were available for determining drug degradation during jet milling micronization. […] The chromatographic peak area for the HPLC assay of the unmilled drug standard solution (10 mg/ml) gave a value of 23,427. […] The chromatographic peak areas for vials A and B were 11,979 and 11,677, respectively.

[6] = Short-term solution stability of DHEA-S nebulizer formulation; format: physicochemical; conditions: for appearance / solution stability: 10 mg/mL in 0.12% NaCl
Experimental: Aliquots of this solution are filled into clear glass vials and stored at RT (24-26° C.) and at 40° C. The samples are checked daily for DHEA-S content, DHEA content, and appearance. For each time point, duplicate samples are withdrawn and diluted from each vial. […] The study is stopped on day three. […] The solution should easily be stable for the day of reconstitution in a clinical trial. The following section describes the aerosol properties of this formulation.

[7] = Solubility of DHEA-S in NaCl media; format: physicochemical
Description: Inhalation of pure water can produce a cough stimulus. […] The temperature effect is weaker at high NaCl concentrations.

[8] = Particle size of jet-milled / spray-dried DHEA-S (Malvern Mastersizer X, light microscope); format: physicochemical; conditions: two batches, visual examination of dispersions
Experimental: Approximately 1 g sample was passed through the jet mill, once, and approximately 2 g sample were passed through the jet mill twice. […] The resulting solution was sonicated for 3 minutes and appeared fully dispersed. The dispersed solutions were tested on a Malvern Mastersizer X with a small volume sampler (SVS) attachment. One sample of dispersed material was tested 5 times. The median particle size or D (v, 0.5) of unmilled material was 52.56 μm and the % RSD (relative standard deviation) was 7.61 for the 5 values. The D (v, 0.5) for a single pass through the jet mill was 3.90 μm and the % RSD was 1.27, and the D (v, 0.5) from a double pass through the jet mill 3.25 μm and the % RSD was 3.10.
The solution was spray-dried with a B-191 Mini Spray-Drier (Buchi, Flawil, Switzerland) with an inlet temperature of 55° C., outlet temperature of 40° C., at 100% aspirator, at 10% pump, nitrogen flow at 40 mbar and spray flow at 600 units. The spray-dried product was suspended in hexane and Span85 surfactant added to reduce agglomeration. The dispersions were sonicated with cooling for 3-5 minutes for complete dispersion and the dispersed solutions tested on a Malvern Mastersizer X with a Small Volume Sampler (SVS) attachment. […] Visual examination by light microscope of the dispersions of each batch confirmed that spray drying produced small respirable size particles. […]

[9] = Solid-state stability with and without lactose at 50° C. (DHEA formed, HPLC); format: physicochemical; conditions: 1 week at 50° C.; neat and lactose blend
Description: These conditions were used to stress the formulation in order to predict its long-term stability results. […] The primary degradant is DHEA. […] The materials on accelerated storage become more cohesive with time as evidenced by clumping during sample weighing for chemical analysis. […] This is a considerable disadvantage since lactose is the most commonly used inhalation excipient for dry powder formulations. Continuing with the virtually anhydrous form would mean limiting formulations to neat powder or undertaking more comprehensive safety studies to use a novel excipient.

HT-29 SF cells [10] = experiment: Reversal of DHEA effect on cell cycle; format: cell-based, human; conditions: 25 FM DHEA
[11] = 15° C., 20 mM Na^+, Ksp 1316 mM^2

Structure (SMILES): C[C@]12CC[C@H](O)CC1=CC[C@@H]1[C@@H]2CC[C@]2(C)C(=O)CC[C@@H]12 [DHEA, 3β-hydroxyandrost-5-en-17-one]
- effect on tissue adenosine ([1]; rat, in vivo): multi-organ depletion of adenosine
- cell cycle distribution (HT-29 SF cells [2]; 200 μM DHEA, after 24 hours): more rapid increase in the percentage of cells in G1 and a decreased proportion of cells in S phase
- cell cycle effect (HT-29 SF cells [2]; 25, 50, 200 μM, 24-72 hours): G1 block in HT-29 SF cells in a time-and dose-dependent manner

Structure (SMILES): C[C@]12CC[C@H](OS(=O)(=O)[O-])CC1=CC[C@@H]1[C@@H]2CC[C@]2(C)C(=O)CC[C@@H]12.[Na+] [DHEA-S, sodium dehydroepiandrostenone sulfate]
- solubility under assay conditions [3]: highly limited
- maximal effect, inhibition of mast cell degranulation ([4]; at 0.1 uM, percent inhibition of control histamine secretion): 69.9%
- inhibition of mast cell degranulation ([4]; rat peritoneal mast cells, compound 48/80): concentration-dependent inhibition
- EC50 ([4]; rat peritoneal mast cells, compound 48/80, histamine secretion, read-out: EC50, inhibition of mast cell degranulation): 170 nM
- degradation during jet milling micronization [5]: no detectable degradation
- solution stability ([6]; 7.5 mg/mL of DHEA-S in 0.12% NaCl, RT): stable for at least one day at RT
- appearance / solution stability ([6]; 40° C.): became cloudy after two days of storage
- appearance / solution stability ([6]; RT (24-26° C.)): slight precipitate is observed on the third day
- estimated DHEA-S solution concentration [7, 11]: 10.7 mg/mL
- estimated DHEA-S^− solution concentration [7, 11]: 27.5 mM
- solubility as a function of NaCl concentration ([7]; RT and refrigerated): decrease with NaCl concentration
- effect of 20 mM phosphate buffer on solubility ([7]; RT, buffered vs unbuffered): suppress the solubility

Structure (SMILES): C[C@]12CC[C@H](OS(=O)(=O)[O-])CC1=CC[C@@H]1[C@@H]2CC[C@]2(C)C(=O)CC[C@@H]12.[Na+] [Anhydrous DHEA-S]
- mean particle size by light microscope [8]: 2.4 μm and 2.0 μm

Structure (SMILES): CC12CCC3C(CC=C4CC(OS(=O)(=O)[O-])CCC43C)C1CCC2=O.[Na+] (centres unmarked) [DHEA-S Dihydrate]
- DHEA generated on storage [9]: virtually no DHEA generated

Structure (SMILES): C[C@@](O)(CCO)CC(=O)O [MVA, mevalonic acid]
- prevention of DHEA-induced S phase depletion (HT-29 SF cells [10]; 48 hours): partially prevented this effect

Structure (SMILES): CC(C)CCC[C@@H](C)[C@H]1CC[C@H]2[C@@H]3CC=C4C[C@@H](O)CC[C@]4(C)[C@H]3CC[C@]12C [CH, cholesterol]
- prevention of DHEA-induced S phase depletion (HT-29 SF cells [10]; 72 hours): no effect

Structure (SMILES): C[C@]12CCC(=O)C=C1CC[C@@H]1[C@@H]2CC[C@@]2(C)[C@H]1CC[C@]2(C)O [Methyltestosterone]
- effect on tissue adenosine ([1]; rats, administered daily for two weeks): multi-organ depletion of adenosine
